Assay results from patent US20100291564A1, “Methods for Detection of Micro-Organisms” (MICROSEN MEDTECH LIMITED, priority 2007, published 2010).

How the values were obtained:
[1] = system: E. coli; assay: Drug susceptibility testing by NAD-dependent ligase mediated PCR assay; assay type: cell-based, Escherichia coli; conditions: for Cycle at which PCR was positive: plus gentamicin 50 μg/ml
Source text: The PCR signal generated is related to the number of ligated molecules of the DNA substrate which in turn is related to the number of ligase molecules present. In turn, the number of molecules of ligase present is dependent on the viability of the bacterium. Upon culture of a given bacterium, if the bacteria are healthy, growing and increasing in number there will be progressively more ligase present which will generate more ligation and more PCR signal. If the bacteria are unhealthy and non-viable or dying there will be no increase in ligase on culture and the number of ligase molecules might even be expected to decrease which will be reflected in the amount of ligation and PCR signal generated. In this example we have tested the susceptibility of the organism to an antibiotic. By culturing in the presence and absence of antibiotic we can compare the signal generated from the bacterial ligase at different time points. Additionally, the experiment can be performed with and without the addition of the NAD+ cofactor. In the presence of added cofactor the ligase can cycle through many ligation steps. In the absence of added cofactor the ligase must depend on endogenous bacterial NAD+ for ligation. These two conditions, therefore are two different measures of the health of the bacterial cell
1. 10 ml of media (LB broth) containing 50 μg/ml gentamicin was inoculated with […] E. coli bacteria/ml and incubated for 3 hours. At 30 min time points 1 ml of the culture was removed and placed on ice until completion of the time course.
2. The bacteria were then pelleted by centrifugation at 6,000×g for 5 min and the supernatant removed.
3. The protocol from this stage was identical to steps 3 to 8 in example 1 except that the ligase reaction was performed with and without added NAD+.

[2] = system: Staph. aureus; assay: Sensitivity of Staph. aureus cells to antibiotic, NAD-dependent ligase detection (LiMA-2, Taq-Man real time PCR); assay type: cell-based, Staphylococcus aureus; conditions: 10^4 cells added to culture medium, after 4 hours in the presence of antibiotic
Experimental: FIG. 5. Sensitivity of Staph. aureus cells to antibiotic. […]
Take 1 ml fresh Staph. aureus culture (10^6 cells/μl), spin 8000 rpm 5 min, resuspend pellet in 1 ml deionised water Dilute in a series of 10 fold dilutions down to 10^2 cells/μl
After ligation step above add 2 μl of following nuclease mix to each tube:
Add 2 μl to PCR mastermix, cycles were:
The detection limit in this experiment was estimated to be between 10 and 100 cells.

Row | Molecule | Cycle at which PCR was positive ([1]; With added NAD+, time 0 min) | Cycle at which PCR was positive ([1]; With added NAD+, time 30 min) | Cycle at which PCR was positive ([1]; With added NAD+, time 60 min) | Cycle at which PCR was positive ([1]; With added NAD+, time 90 min) | Cycle at which PCR was positive ([1]; With added NAD+, time 120 min) | Cycle at which PCR was positive ([1]; With added NAD+, time 150 min) | Cycle at which PCR was positive ([1]; With added NAD+, time 180 min) | Cycle at which PCR was positive ([1]; Without added NAD+, time 0 min) | Cycle at which PCR was positive ([1]; Without added NAD+, time 30 min) | Cycle at which PCR was positive ([1]; Without added NAD+, time 60 min) | Cycle at which PCR was positive ([1]; Without added NAD+, time 90 min) | Cycle at which PCR was positive ([1]; Without added NAD+, time 120 min) | Cycle at which PCR was positive ([1]; Without added NAD+, time 150 min) | Cycle at which PCR was positive ([1]; Without added NAD+, time 180 min) | signal from the bacterial ligase ([1]; in the presence of gentamicin 50 μg/ml, incubation up to 3 hours) | fall of NAD-dependent ligase content [2]
1 | gentamicin | 26.2 | 25.1 | 25.7 | 26.2 | 27.2 | 26.8 | 26.3 | 29.5 | 29.4 | 31.6 | 30.1 | 30.3 | 29.4 | 30.1 | does not increase with incubation | 
2 | Cc1onc(-c2ccccc2)c1C(=O)N[C@@H]1C(=O)N2[C@@H]1SC(C)(C)[C@@H]2C(=O)O [oxacillin] |  |  |  |  |  |  |  |  |  |  |  |  |  |  |  | > 2×10^3 fold
